# From patent US6835536B2, “Antimicrobial cationic peptides and formulations thereof” (Micrologix Biotech Inc., priority 2001, dated 2004)
# Tests used:
# Experiment in all cases: Agarose dilution MIC assay
# Format in all cases: cell-based
# [1] = test system: E. cloacae; conditions: E. cloacae strain ECL007
# Text: (§1) The agarose dilution assay measures antimicrobial activity of peptides and peptide analogues. The activity is expressed as the minimum inhibitory concentration (MIC) in μg/ml of the peptide.
# (§2) In order to mimic in vivo conditions, calcium and magnesium supplemented Mueller Hinton broth is used in combination with a low EEO agarose as the bacterial growth medium. Agarose, rather than agar, is used as the charged groups in agar prevent peptide diffusion through the medium. The medium is autoclaved, then cooled to 50-55° C. in a water bath before aseptic addition of a peptide solution. The same volume of different concentrations of peptide solution is added to the cooled, molten agarose that is then poured into a petri plate to a depth of 3-4 mm and allowed to solidify.
# (§3) The bacterial inoculum is adjusted to a 0.5 McFarland turbidity standard (PML Microbiological) and then diluted 1:10 before application on to the agarose plate. The final inoculum applied to the agarose is approximately 10^4 CFU in a 5-8 mm diameter spot. The agarose plates are incubated at 35-37° C. for 16 to 20 hours.
# [2] = test system: K. pneumoniae
# Text: as §1, §2, §3
# [3] = test system: S. aureus; conditions: for Minimum Inhibitory Concentration: S. aureus strain SAU014, agarose dilution
# Text: as §1, §2, §3
# [4] = test system: E. coli; conditions: E. coli strain ECO005
# Text: as §1, §2, §3
# [5] = test system: S. pyogenes; conditions: S. pyogenes strain SPY001
# Text: as §1, §2, §3
# [6] = test system: S. pneumoniae; conditions: S. pneumoniae strain SPN002
# Text: as §1, §2, §3
# [7] = test system: S. marcescens; conditions: S. marcescens strain SMS003
# Text: as §1, §2, §3
# [8] = test system: S. maltophilia; conditions: S. maltophilia strain SMA002
# Text: as §1, §2, §3
# [9] = test system: C. neoformans; conditions: C. neoformans strain CNE001
# Text: as §1, §2, §3
# [10] = test system: E. faecalis; conditions: E. faecalis strain EFS001
# Text: as §1, §2, §3
# [11] = test system: C. jeikeium; conditions: C. jeikeium strain CJK005
# Text: as §1, §2, §3
# [12] = test system: C. albicans; conditions: for Minimum Inhibitory Concentration: C. albicans strain CAL002, agarose dilution
# Text: as §1, §2, §3
# [13] = test system: P. aeruginosa; conditions: for Minimum Inhibitory Concentration: P. aeruginosa strain PAE004, agarose dilution
# Text: as §1, §2, §3
# [14] = test system: A. calcoaceticus; conditions: A. calcoaceticus strain ACA002
# Text: as §1, §2, §3
# [15] = test system: S. mitis; conditions: S. mitis strain SMT014
# Text: as §1, §2, §3
# [16] = test system: S. epidermidis; conditions: for Minimum Inhibitory Concentration: S. epidermidis strain SEP010, agarose dilution
# Text: as §1, §2, §3
Substance,Minimum Inhibitory Concentration [1] [µg/mL],Minimum Inhibitory Concentration ([2]; K. pnenmoniae strain KPN001) [µg/mL],Minimum Inhibitory Concentration [3] [µg/mL],Minimum Inhibitory Concentration [4] [µg/mL],Minimum Inhibitory Concentration [5] [µg/mL],Minimum Inhibitory Concentration [6] [µg/mL],Minimum Inhibitory Concentration [7] [µg/mL],Minimum Inhibitory Concentration [8] [µg/mL],Minimum Inhibitory Concentration [9] [µg/mL],Minimum Inhibitory Concentration [10] [µg/mL],Minimum Inhibitory Concentration [11] [µg/mL],Minimum Inhibitory Concentration [12] [µg/mL],Minimum Inhibitory Concentration [13] [µg/mL],Minimum Inhibitory Concentration [14] [µg/mL],Minimum Inhibitory Concentration [15] [µg/mL],Minimum Inhibitory Concentration [16] [µg/mL],Minimum Inhibitory Concentration ([2]; K. pneumoniae strain KPN001) [µg/mL],also measured
I L K W V W W V W R R K [Peptide 11B36CN],64,8,2,8,2,4,>128,8,16,16,1,8,32,2,2,2,–,–
I L R R W V W W V W R R K [Peptide 11F5CN],128,64,8,16,2,4,>128,16,8,16,0.5,32,64,4,2,2,–,–
I L R W P W W P W R R K [Peptide 11B7CN],–,–,–,–,–,–,–,–,–,–,–,–,–,–,–,–,–,"MIC ([3]; S. aureus (SA016), Table 6): Organism Tested: S. aureus (SA016) MIC = 2 ug/ml; MIC ([12]; C. albicans (CA002), Table 6): Organism Tested: C. albicans (CA002) MIC = 64 ug/ml; MIC ([13]; P. aeruginosa (PA004), Table 6): Organism Tested: P. aeruginosa (PA004) MIC = 128 ug/ml; MIC ([16]; S. epidermidis (SE010), Table 6): Organism Tested: S. epidermidis (SE010) MIC = 4 ug/ml"
R L F V W W V F R R [Peptide 11F64CN],16,2,1,2,1,2,>128,1,8,2,0.5,16,16,2,1,1,–,–
R L G G G W V W W V W R R [Peptide 11F50CN],>128,16,2,4,1,2,>128,8,16,16,0.5,32,>128,2,1,1,–,–
R L V V W W V V R R [Peptide 11F63CN],16,4,2,2,1,4,>128,0.5,8,4,1,16,8,2,2,1,–,–
W (Dab) W W (Dab) P (Dab) W (Dab) W P (Dab) W [Peptide 11J68CN],1.6e-05,–,–,–,5e-07,1,–,4,1,–,<0.25,–,4e-06,5e-07,–,–,4,–
W (Orn) W W (Orn) P (Orn) W (Orn) W P (Orn) W [Peptide 11J67CN],–,–,2e-06,–,–,2,–,1,2,6.4e-05,<0.25,–,–,1e-06,–,–,8,–
W (Orn) W W (Orn) V A W (Orn) W V (Orn) W [Peptide 11J58CN],1.6e-05,–,–,–,–,2,–,2,2,3.2e-05,0.5,–,1.6e-05,1e-06,1e-06,–,2,–
W P W W P W R R K [Peptide 11G27CN],–,–,–,6.4e-05,–,32,–,64,16,–,0.5,–,>0.000128,1.6e-05,–,8e-06,>128,–
W R W W K P K W R W P K W [Peptide 11J02ACN],>3.2e-05,–,8e-06,1.6e-05,–,16,–,8,16,6.4e-05,0.5,–,–,–,–,–,32,–
W R W W K V W R W V K W [Peptide 11J36CN],–,–,–,–,–,2,–,2,4,–,0.5,–,–,–,1e-06,–,4,–
W V R L W W R R V W [Peptide 11F93CN],–,–,2e-06,–,–,4,–,8,8,–,0.5,–,–,–,–,–,64,–
